Results reported in patent US20050142169A1, “Palatability enhanced composition and method for animal consumption” (priority 2003, published 2005).
Like-named read-outs stand apart in the source and are kept apart here.

How the values were obtained:
dogs [1] = conditions: for Intake Ratio / Preference (%) control composition / Preference (%) test composition / Status (vs. control): dry wt. of kibble, dogs, Hill's Canine Maintenance Adult
Source text: The experiment comprised mixing various amounts of 2,5-dimethyl-4-hydroxy-3(2H)-furanone (0.2% to 1.2%) with a commercial liquid palatant enhancer as a carrier to form a flavored palatant (hereinafter test flavor). The test flavor (2.0%, dry weight basis) was topically applied to a dry, commercial dog food (Hill's Canine Maintenance Adult, a Science Diet for adult dogs commercially available from Hill's Pet Nutrition, Inc., Topeka, Kans.) after sequential application of soy bean oil (1.2%, dry weight basis) and choice white grease (7.9%, dry weight basis) to form a test composition.
Each test composition was compared against a control composition in a palatability test. The control compositions were prepared by topically applying the commercial liquid palatant enhance (2.0% dry weight basis) to the dry, commercial dog food (Hill's Canine Maintenance Adult) after sequential application of soy bean oil (1.2%, dry weight basis) and choice white grease (7.9%, dry weight basis). Palatability was determined by comparing the test composition and the control composition in a standard two-bowl preference test over two days with 20 dogs.

dogs [2] = assay: two-bowl preference test, Example 2 (Canine r/d); type: in vivo, dog; conditions: dry wt. of kibble
Protocol: Each of the test flavors (2.0%, dry weight basis) was topically applied to a dry, commercial dog food (Canine r/d from Hill's Pet Nutrition, Inc.) after sequential application of soy bean oil (2.0%, dry weight basis) and choice white grease (0.4%, dry weight basis) to form a test composition. Each test composition was compared against a control composition in a palatability test as described in Example 1. The control compositions were prepared by topically applying the commercial liquid palatant enhancer (2.0% dry weight basis) to the dry, commercial dog food (Canine r/d) after sequential application of soy bean oil (2.0%, dry weight basis) and choice white grease (0.4%, dry weight basis). Palatability was determined by comparing the test composition and the control composition in a standard two-bowl preference test over two days with 20 dogs as described in Example 1.

CC1=C(O)C(=O)C(C)O1 (stereo not drawn) [2,5-dimethyl-4-hydroxy-3(2H)-furanone]
Intake Ratio (dogs [1]; Exp. No. 2, 43.5 ppm): 0.5705 | Preference (%) control composition (dogs [1]; Exp. No. 2, 43.5 ppm): 27.8% | Preference (%) test composition (dogs [1]; Exp. No. 2, 43.5 ppm): 61.1% | Status (vs. control) (dogs [1]; Exp. No. 2, 43.5 ppm): Parity | Intake Ratio (dogs [1]; Exp. No. 3, 87.1 ppm): 0.7361 | Preference (%) control composition (dogs [1]; Exp. No. 3, 87.1 ppm): 10.0% | Preference (%) test composition (dogs [1]; Exp. No. 3, 87.1 ppm): 90.0% | Status (vs. control) (dogs [1]; Exp. No. 3, 87.1 ppm): Win | Intake Ratio (dogs [1]; Exp. No. 4, 130.5 ppm): 0.5673 | Preference (%) control composition (dogs [1]; Exp. No. 4, 130.5 ppm): 25.0% | Preference (%) test composition (dogs [1]; Exp. No. 4, 130.5 ppm): 50.0% | Status (vs. control) (dogs [1]; Exp. No. 4, 130.5 ppm): Win | Intake Ratio (dogs [1]; Exp. No. 5, 217.5 ppm): 0.6575 | Preference (%) control composition (dogs [1]; Exp. No. 5, 217.5 ppm): 40.0% | Preference (%) test composition (dogs [1]; Exp. No. 5, 217.5 ppm): 60.0% | Status (vs. control) (dogs [1]; Exp. No. 5, 217.5 ppm): Win | Intake Ratio (dogs [1]; Exp. No. 6, 217.5 ppm): 0.8206 | Preference (%) control composition (dogs [1]; Exp. No. 6, 217.5 ppm): 5.0% | Preference (%) test composition (dogs [1]; Exp. No. 6, 217.5 ppm): 95.0% | Status (vs. control) (dogs [1]; Exp. No. 6, 217.5 ppm): Win | intolerance of the test palatant following intake (dogs [1]; dog, in vivo): No evidence of any intolerance | Intake Ratio (dogs [2]; Exp. No. 1, 21.75 ppm): 0.5843 | Preference (%) control composition (dogs [2]; Exp. No. 1, 21.75 ppm): 42.9% | Preference (%) test composition (dogs [2]; Exp. No. 1, 21.75 ppm): 50.0% | Status (vs. control) (dogs [2]; Exp. No. 1, 21.75 ppm): Parity | Intake Ratio (dogs [2]; Exp. No. 2, 43.5 ppm): 0.6667 | Preference (%) control composition (dogs [2]; Exp. No. 2, 43.5 ppm): 16.7% | Preference (%) test composition (dogs [2]; Exp. No. 2, 43.5 ppm): 77.8% | Status (vs. control) (dogs [2]; Exp. No. 2, 43.5 ppm): Win | Intake Ratio (dogs [2]; Exp. No. 3, 87.1 ppm): 0.5732 | Preference (%) control composition (dogs [2]; Exp. No. 3, 87.1 ppm): 29.4% | Preference (%) test composition (dogs [2]; Exp. No. 3, 87.1 ppm): 64.7% | Status (vs. control) (dogs [2]; Exp. No. 3, 87.1 ppm): Parity | Intake Ratio (dogs [2]; Exp. No. 4, 174.0 ppm): 0.5523 | Preference (%) control composition (dogs [2]; Exp. No. 4, 174.0 ppm): 31.3% | Preference (%) test composition (dogs [2]; Exp. No. 4, 174.0 ppm): 50.0% | Status (vs. control) (dogs [2]; Exp. No. 4, 174.0 ppm): Parity | Intake Ratio (dogs [2]; Exp. No. 5, 217.5 ppm): 0.5047 | Preference (%) control composition (dogs [2]; Exp. No. 5, 217.5 ppm): 66.7% | Preference (%) test composition (dogs [2]; Exp. No. 5, 217.5 ppm): 33.3% | Status (vs. control) (dogs [2]; Exp. No. 5, 217.5 ppm): Parity | Intake Ratio (dogs [2]; Exp. No. 6, 282.8 ppm): 0.4297 | Preference (%) control composition (dogs [2]; Exp. No. 6, 282.8 ppm): 47.1% | Preference (%) test composition (dogs [2]; Exp. No. 6, 282.8 ppm): 52.9% | Status (vs. control) (dogs [2]; Exp. No. 6, 282.8 ppm): Parity
